Counter-ions that a name gives are not always drawn.

The target in one series is T1, dopamine D2 receptor (Rattus norvegicus, UniProt P61169).
T1 construct: from tissue; host or cells: rat striatal brain tissue homogenate
T1 sequence (P61169 whole entry): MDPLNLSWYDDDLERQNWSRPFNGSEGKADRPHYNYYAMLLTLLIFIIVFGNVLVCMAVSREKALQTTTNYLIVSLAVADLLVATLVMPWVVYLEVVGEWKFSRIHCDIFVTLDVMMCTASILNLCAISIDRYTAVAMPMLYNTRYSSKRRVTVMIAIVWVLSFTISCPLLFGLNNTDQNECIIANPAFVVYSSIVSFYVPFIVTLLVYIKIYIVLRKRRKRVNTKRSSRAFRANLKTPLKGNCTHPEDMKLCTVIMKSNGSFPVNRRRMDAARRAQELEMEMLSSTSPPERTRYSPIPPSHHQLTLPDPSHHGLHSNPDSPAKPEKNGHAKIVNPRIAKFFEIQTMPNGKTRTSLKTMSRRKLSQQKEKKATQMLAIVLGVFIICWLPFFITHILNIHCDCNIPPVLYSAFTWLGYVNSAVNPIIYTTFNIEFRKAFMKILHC
Put plainly: Dopamine D2 receptor affinity, 3H-quinpirole binding in homogenized rat striatal brain tissue. Here is the method:
Affinity for the dopamine D2 receptor was established by a modification of the standard experimental test procedure of Seemen and Schaus, European Journal of Pharmacology 203: 105-109, 1991, wherein homogenized rat striatal brain tissue is incubated with ^3H-quinpirole and various concentrations of test compound, filtered and washed and counted in a Betaplate scintillation counter.
The IC50 is the point on the concentration scale where inhibition reaches its midpoint. The low end stands for greater potency in that assay, the high end for weaker potency in that assay. As to `c1ccc(CNC[C@H]2COc3ccc4[nH]ncc4c3O2)cc1` [Example 1], the half-maximal inhibitory concentration (IC50) came to 0.45 nM.
Still for that read-out and setting: for `c1ccc(CCCCNC[C@H]2COc3ccc4[nH]ncc4c3O2)cc1` [Example 2] the value was 0.29 nM; for `c1cc2[nH]ncc2c2c1OCC(CNCC13CC4CC(CC(C4)C1)C3)O2` (centres unmarked) [Example 3, Adamantan-1-ylmethyl-(-7,8-dihydro-3H-6,9-dioxa-2,3-diaza-cyclopenta[a]naphthalen-8-ylmethyl)-amine], 0.1 nM; for `c1ccc2c(CCCNCC3COc4ccc5[nH]ncc5c4O3)c[nH]c2c1` (centres unmarked) [Example 4, (7,8-Dihydro-3H-6,9-dioxa-2,3-diaza-cyclopenta[a]naphthalen-8-ylmethyl)-[3-(1H-indol-3-yl)-propyl]-amine], 0.17 nM.
The same measure, in the same setting: to `c1ccc2c(c1)CCN(CC1COc3ccc4[nH]ncc4c3O1)C2` (centres unmarked) [Example 5, 8-(3,4-Dihydro-1H-isoquinolin-2-ylmethyl)-7,8-dihydro-3H-6,9-dioxa-2,3-diaza-cyclopenta[a]naphthalene] belongs 1.1 nM.
On the same count and under the same terms, to `C1=C(c2c[nH]c3ccccc23)CCN(CC2COc3ccc4[nH]ncc4c3O2)C1` (centres unmarked) [Example 6, 8-[4-(1H-indol-3-yl)-3,6-dihydro-2H-pyridin-1-ylmethyl]-7,8-dihydro-3H-6,9-dioxa-2,3-diaza-cyclopenta[a]naphthalene] belongs 4.5 nM; to `Fc1ccc2[nH]cc(CC3CCN(CC4COc5ccc6[nH]ncc6c5O4)CC3)c2c1` (centres unmarked) [Example 7, 8-[4-(5-Fluoro-1H-indol-3-ylmethyl)-piperidin-1-ylmethyl]-7,8-dihydro-3H-6,9-dioxa-2,3-diaza-cyclopenta[a]naphthalene], 3.4 nM.

System in another series: not given
Assay: not given
Broadly, the melting point is the temperature, or range, at which the solid turns liquid. Turning to `c1ccc(CNC[C@H]2COc3ccc4[nH]ncc4c3O2)cc1` (as salt: fumarate) (hydrate or solvate) [Example 1], the melting point was 194 to 195.7 °C.
Take `c1ccc(CCCCNC[C@H]2COc3ccc4[nH]ncc4c3O2)cc1` (as salt: hydrochloride) (hydrate or solvate) [Example 2]: the melting point came out at 104 °C.
With `c1cc2[nH]ncc2c2c1OCC(CNCC13CC4CC(CC(C4)C1)C3)O2` (centres unmarked) (as salt: hydrochloride) [Example 3, Adamantan-1-ylmethyl-(-7,8-dihydro-3H-6,9-dioxa-2,3-diaza-cyclopenta[a]naphthalen-8-ylmethyl)-amine], the melting point is more than 300 °C.
Same read-out and setting: to `c1ccc2c(c1)CCN(CC1COc3ccc4[nH]ncc4c3O1)C2` (centres unmarked) (as salt: hydrochloride) [Example 5, 8-(3,4-Dihydro-1H-isoquinolin-2-ylmethyl)-7,8-dihydro-3H-6,9-dioxa-2,3-diaza-cyclopenta[a]naphthalene] belongs 170 to 172 °C; to `C1=C(c2c[nH]c3ccccc23)CCN(CC2COc3ccc4[nH]ncc4c3O2)C1` (centres unmarked) (as salt: hydrochloride) [Example 6, 8-[4-(1H-indol-3-yl)-3,6-dihydro-2H-pyridin-1-ylmethyl]-7,8-dihydro-3H-6,9-dioxa-2,3-diaza-cyclopenta[a]naphthalene], 190 °C.
For `Fc1ccc2[nH]cc(CC3CCN(CC4COc5ccc6[nH]ncc6c5O4)CC3)c2c1` (centres unmarked) (as salt: hydrochloride) [Example 7, 8-[4-(5-Fluoro-1H-indol-3-ylmethyl)-piperidin-1-ylmethyl]-7,8-dihydro-3H-6,9-dioxa-2,3-diaza-cyclopenta[a]naphthalene], the melting point was 165 °C.
The molecule `c1ccc2c(CCCNCC3COc4ccc5[nH]ncc5c4O3)c[nH]c2c1` (centres unmarked) (as salt: oxalate) [Example 4, (7,8-Dihydro-3H-6,9-dioxa-2,3-diaza-cyclopenta[a]naphthalen-8-ylmethyl)-[3-(1H-indol-3-yl)-propyl]-amine] yielded a melting point of 138 to 142 °C.

Source of the values: US6800641B2, “Antipsychotic aminomethyl derivatives of 7,8-dihydro-3H-6,9-dioxa-2,3-diaza-cyclopenta[a]naphthalene” (Wyeth, priority 2001, dated 2004).
